# Laboratory results as given in ChEMBL document CHEMBL4507268 (2021).
# Experiments:
# Details in all cases: Compound concentration 1000.0 nM
# [1] = test system: Serine/threonine-protein kinase B-raf (Homo sapiens), P15056 [V600E]
# [2] = molecular target: T1, Ephrin type-B receptor 4 (Homo sapiens) (UniProt P54760)
# T1 sequence (whole entry): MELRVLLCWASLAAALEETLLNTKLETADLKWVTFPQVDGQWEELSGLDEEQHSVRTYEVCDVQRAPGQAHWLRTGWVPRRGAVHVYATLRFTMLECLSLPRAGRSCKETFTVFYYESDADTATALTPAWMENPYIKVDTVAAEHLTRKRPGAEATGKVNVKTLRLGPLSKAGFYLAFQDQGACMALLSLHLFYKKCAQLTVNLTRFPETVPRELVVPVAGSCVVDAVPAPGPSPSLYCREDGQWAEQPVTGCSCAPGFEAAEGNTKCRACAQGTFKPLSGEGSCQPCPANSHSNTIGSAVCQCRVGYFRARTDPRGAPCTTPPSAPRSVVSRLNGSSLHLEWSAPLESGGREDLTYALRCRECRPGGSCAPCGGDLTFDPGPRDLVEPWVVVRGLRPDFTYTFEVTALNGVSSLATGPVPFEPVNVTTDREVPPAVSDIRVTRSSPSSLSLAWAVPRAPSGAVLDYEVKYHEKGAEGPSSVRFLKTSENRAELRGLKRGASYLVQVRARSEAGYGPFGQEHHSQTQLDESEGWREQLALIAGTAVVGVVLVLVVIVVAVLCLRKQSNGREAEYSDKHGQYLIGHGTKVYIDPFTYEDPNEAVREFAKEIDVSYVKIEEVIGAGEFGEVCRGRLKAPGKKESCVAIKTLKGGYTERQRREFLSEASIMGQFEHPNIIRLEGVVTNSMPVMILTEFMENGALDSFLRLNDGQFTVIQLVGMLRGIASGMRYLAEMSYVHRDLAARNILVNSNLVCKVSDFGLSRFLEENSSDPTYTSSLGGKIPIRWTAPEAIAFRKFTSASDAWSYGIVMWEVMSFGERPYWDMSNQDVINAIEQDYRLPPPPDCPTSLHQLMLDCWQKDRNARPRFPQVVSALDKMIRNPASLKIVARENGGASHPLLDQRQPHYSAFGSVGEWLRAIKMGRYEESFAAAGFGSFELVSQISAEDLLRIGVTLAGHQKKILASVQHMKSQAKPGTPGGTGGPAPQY
# [3] = molecular target: Fibroblast growth factor receptor 1 (Homo sapiens) (UniProt P11362)
# [4] = molecular target: T2, Discoidin domain-containing receptor 2 (Homo sapiens) (UniProt Q16832)
# T2 sequence (whole entry): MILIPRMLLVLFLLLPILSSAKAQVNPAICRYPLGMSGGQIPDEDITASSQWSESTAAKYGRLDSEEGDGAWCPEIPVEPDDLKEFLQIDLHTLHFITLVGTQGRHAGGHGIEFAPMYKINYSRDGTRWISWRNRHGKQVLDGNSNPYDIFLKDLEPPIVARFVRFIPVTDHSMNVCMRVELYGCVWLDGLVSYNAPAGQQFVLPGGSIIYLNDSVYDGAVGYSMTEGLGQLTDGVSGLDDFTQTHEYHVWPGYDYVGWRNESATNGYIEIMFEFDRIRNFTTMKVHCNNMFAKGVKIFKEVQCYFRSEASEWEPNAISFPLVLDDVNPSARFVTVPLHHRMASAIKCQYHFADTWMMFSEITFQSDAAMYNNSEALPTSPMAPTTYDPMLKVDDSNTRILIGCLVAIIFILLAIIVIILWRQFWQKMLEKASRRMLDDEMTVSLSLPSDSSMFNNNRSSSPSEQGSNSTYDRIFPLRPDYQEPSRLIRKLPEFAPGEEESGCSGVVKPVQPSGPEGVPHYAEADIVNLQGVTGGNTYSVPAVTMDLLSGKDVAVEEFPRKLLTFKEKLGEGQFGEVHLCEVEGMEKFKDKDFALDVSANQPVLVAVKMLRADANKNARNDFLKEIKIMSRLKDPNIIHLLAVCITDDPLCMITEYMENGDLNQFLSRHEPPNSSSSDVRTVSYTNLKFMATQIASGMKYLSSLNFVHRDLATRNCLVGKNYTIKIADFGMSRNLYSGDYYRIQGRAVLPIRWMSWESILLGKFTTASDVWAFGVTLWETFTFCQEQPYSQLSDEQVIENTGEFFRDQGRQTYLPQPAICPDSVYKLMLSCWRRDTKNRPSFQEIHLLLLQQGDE
# [5] = molecular target: Proto-oncogene tyrosine-protein kinase receptor Ret (Homo sapiens) (UniProt P07949)
# [6] = test system: Tyrosine-protein kinase ABL1 (Homo sapiens), P00519 [H396P]
# [7] = molecular target: T3, Serine/threonine-protein kinase BRSK1 (Homo sapiens) (UniProt Q8TDC3)
# T3 sequence (whole entry): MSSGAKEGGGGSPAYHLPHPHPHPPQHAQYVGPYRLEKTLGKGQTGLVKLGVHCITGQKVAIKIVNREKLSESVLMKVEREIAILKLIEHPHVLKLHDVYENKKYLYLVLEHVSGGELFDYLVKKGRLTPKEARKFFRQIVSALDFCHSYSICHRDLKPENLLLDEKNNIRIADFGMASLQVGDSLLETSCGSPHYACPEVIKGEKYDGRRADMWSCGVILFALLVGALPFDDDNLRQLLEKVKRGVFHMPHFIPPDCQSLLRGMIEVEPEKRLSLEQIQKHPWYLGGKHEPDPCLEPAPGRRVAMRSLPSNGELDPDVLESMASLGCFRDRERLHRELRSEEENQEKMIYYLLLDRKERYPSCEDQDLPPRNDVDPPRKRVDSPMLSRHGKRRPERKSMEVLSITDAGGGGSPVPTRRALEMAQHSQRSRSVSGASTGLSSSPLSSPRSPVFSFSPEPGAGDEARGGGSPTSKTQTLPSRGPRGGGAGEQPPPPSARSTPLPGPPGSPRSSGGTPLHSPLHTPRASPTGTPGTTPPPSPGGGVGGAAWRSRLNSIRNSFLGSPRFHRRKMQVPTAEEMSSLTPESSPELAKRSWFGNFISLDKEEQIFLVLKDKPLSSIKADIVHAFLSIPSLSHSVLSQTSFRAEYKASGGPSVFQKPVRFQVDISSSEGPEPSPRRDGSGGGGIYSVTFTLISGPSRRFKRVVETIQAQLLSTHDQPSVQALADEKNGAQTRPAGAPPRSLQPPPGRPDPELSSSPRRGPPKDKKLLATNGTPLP
# [8] = molecular target: Ephrin type-B receptor 6 (Homo sapiens) (UniProt O15197)
# [9] = test system: ALK tyrosine kinase receptor (Homo sapiens), Q9UM73 [L1196M]
# [10] = molecular target: Ribosomal protein S6 kinase alpha-3 (Homo sapiens) (UniProt P51812)
# Sequence of Ribosomal protein S6 kinase alpha-3 (Homo sapiens) (P51812 whole entry): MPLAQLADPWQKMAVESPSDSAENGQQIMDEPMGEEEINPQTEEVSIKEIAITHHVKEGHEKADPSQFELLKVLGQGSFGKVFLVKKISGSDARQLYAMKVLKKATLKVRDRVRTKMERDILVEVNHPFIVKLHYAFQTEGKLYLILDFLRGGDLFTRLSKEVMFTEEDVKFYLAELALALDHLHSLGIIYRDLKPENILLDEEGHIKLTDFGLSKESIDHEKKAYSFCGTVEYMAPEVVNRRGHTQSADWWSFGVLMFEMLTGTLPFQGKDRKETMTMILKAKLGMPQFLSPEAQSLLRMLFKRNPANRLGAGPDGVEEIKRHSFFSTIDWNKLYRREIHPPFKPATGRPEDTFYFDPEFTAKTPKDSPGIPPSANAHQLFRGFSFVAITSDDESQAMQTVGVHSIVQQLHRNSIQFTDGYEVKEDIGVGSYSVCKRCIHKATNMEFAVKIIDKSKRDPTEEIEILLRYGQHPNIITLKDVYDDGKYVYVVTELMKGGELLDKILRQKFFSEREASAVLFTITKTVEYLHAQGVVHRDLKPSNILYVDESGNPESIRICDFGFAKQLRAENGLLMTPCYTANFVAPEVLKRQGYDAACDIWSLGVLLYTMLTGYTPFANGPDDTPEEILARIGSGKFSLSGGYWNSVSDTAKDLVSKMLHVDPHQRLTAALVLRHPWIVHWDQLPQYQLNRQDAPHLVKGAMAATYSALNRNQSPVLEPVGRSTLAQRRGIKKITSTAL
# Sequence of Proto-oncogene tyrosine-protein kinase receptor Ret (Homo sapiens) (P07949 whole entry): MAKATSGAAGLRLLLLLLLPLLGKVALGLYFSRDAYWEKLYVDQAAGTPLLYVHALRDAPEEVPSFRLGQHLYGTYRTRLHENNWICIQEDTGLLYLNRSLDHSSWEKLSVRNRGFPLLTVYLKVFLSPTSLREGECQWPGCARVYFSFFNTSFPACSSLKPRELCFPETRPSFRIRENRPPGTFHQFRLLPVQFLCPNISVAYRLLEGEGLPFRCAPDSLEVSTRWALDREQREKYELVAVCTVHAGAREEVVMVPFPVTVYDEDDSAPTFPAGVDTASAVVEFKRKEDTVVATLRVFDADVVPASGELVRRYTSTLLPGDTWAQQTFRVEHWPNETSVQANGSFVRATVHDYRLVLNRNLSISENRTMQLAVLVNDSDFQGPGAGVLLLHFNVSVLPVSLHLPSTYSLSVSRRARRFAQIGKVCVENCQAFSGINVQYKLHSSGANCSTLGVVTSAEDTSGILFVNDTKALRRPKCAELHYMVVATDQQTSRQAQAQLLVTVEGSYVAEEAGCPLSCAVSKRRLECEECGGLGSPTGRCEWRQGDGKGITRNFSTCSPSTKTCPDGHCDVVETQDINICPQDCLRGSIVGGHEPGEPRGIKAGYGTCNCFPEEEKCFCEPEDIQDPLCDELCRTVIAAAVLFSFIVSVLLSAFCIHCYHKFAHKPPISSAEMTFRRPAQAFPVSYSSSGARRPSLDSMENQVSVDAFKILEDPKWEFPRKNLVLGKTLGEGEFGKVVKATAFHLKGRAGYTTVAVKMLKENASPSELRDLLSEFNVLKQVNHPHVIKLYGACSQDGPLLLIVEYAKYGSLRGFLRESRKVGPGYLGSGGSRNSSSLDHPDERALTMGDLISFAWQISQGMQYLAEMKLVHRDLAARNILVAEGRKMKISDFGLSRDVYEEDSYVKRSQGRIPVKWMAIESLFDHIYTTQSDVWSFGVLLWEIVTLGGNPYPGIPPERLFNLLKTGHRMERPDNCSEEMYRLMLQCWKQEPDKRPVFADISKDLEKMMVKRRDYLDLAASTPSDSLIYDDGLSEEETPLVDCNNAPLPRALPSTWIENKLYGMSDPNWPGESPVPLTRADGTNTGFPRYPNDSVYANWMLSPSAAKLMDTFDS
# Sequence of Ephrin type-B receptor 6 (Homo sapiens) (O15197 whole entry): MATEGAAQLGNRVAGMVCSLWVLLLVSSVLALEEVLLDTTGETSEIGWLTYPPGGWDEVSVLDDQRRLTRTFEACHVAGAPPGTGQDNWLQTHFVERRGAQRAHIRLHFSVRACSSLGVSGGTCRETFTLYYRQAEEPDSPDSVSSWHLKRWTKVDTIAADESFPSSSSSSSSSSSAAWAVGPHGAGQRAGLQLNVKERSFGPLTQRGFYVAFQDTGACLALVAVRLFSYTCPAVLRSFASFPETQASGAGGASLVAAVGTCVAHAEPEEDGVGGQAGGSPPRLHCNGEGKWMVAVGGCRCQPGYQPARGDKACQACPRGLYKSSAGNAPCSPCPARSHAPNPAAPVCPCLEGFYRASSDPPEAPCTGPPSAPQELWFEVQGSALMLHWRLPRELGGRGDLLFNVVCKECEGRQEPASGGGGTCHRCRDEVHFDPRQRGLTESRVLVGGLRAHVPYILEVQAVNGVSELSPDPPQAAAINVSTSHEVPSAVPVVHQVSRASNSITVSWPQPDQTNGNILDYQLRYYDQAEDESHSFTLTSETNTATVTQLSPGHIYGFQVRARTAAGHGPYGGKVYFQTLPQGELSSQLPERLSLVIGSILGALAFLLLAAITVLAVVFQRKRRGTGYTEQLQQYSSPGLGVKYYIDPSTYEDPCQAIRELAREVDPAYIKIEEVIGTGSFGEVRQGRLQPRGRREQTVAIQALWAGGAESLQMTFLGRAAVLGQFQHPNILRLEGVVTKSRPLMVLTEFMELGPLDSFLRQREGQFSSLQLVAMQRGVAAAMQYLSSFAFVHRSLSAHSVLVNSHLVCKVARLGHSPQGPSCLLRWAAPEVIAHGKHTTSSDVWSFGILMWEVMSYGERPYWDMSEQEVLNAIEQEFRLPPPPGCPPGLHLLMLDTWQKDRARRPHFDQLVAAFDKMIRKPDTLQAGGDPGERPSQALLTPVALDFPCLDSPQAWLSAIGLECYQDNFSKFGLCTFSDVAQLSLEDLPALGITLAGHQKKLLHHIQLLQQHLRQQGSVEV
# Sequence of Fibroblast growth factor receptor 1 (Homo sapiens) (P11362 22-822 limits assumed): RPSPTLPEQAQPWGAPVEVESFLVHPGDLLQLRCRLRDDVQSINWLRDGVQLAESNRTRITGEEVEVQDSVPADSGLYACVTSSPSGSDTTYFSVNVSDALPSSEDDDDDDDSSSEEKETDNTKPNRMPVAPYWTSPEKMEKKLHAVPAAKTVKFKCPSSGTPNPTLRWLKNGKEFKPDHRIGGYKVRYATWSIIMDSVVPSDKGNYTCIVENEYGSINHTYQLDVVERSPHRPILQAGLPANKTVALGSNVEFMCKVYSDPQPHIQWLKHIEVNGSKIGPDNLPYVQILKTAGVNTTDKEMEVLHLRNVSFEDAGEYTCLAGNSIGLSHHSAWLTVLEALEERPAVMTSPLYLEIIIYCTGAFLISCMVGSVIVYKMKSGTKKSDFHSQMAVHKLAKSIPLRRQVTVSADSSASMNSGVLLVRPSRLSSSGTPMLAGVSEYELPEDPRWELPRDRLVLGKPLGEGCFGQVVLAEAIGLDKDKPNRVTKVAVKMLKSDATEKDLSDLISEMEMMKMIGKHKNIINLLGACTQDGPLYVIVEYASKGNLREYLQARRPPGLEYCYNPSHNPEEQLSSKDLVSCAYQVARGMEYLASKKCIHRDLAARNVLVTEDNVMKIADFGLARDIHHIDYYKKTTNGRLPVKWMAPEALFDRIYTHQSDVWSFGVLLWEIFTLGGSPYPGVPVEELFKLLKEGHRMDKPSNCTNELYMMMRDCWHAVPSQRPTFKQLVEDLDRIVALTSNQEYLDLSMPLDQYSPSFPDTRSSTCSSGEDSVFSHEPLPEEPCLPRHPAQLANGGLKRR
# Sequence of Serine/threonine-protein kinase B-raf (Homo sapiens), P15056 [V600E] (P15056 whole entry V600E): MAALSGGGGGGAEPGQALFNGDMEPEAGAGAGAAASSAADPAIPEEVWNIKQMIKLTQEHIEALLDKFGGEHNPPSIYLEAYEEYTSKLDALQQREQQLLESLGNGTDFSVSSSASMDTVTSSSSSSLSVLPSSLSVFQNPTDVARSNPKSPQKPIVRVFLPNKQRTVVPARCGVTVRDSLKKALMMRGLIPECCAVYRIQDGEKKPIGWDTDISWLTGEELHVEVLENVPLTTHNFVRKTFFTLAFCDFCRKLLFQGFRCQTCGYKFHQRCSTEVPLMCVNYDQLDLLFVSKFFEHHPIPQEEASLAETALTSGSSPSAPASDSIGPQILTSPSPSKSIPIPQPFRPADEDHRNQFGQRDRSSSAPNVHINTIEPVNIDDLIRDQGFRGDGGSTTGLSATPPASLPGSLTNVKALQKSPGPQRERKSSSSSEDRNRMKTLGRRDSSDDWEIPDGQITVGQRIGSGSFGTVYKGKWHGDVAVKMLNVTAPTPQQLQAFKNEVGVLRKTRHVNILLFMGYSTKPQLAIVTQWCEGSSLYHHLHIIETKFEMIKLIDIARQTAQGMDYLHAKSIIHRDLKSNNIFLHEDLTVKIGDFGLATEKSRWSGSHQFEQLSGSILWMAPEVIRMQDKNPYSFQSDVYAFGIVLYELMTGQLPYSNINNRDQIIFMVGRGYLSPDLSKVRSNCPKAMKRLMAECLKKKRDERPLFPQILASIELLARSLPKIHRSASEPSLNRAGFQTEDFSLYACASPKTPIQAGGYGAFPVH
Compound,residual activity [1] [%],residual activity [2] [%],residual activity [3] [%],residual activity [4] [%],residual activity [5] [%],residual activity [6] [%],residual activity [7] [%],residual activity [8] [%],residual activity [9] [%],residual activity [10] [%]
Cc1nc(C2CCN(C(=O)c3ccc(OC(F)(F)F)cc3N)CC2)c2ncc(N3CCN(C)CC3)cc2n1 [BAY-693],100,92,100,92,100,89,100,100,98,100
CN1CCN(c2cnc3c(C4CCN(C(=O)c5ccc(OC(F)(F)F)cc5N)CC4)ncnc3c2)CC1 [BAY-885],100,100,100,100,100,100,100,18,100,85
